From patent US4820824A, “Mitomaycin compounds” (Kyowa Hakko Kogyo Kabushiki Kaisha, priority 1986, dated 1989)
Values after ≈ are worked out from the molar mass of the structure shown. Read-outs that look alike come from different tables or passages of the source.

What was measured:
[1] = Acute toxicity; conditions: mouse, in vivo, ip; ddy mice, single abdominal administration, 14 days observation, Behrens-Korber's method
Source text: (§1) Certain Compounds (I) and Sarcoma 180 solid tumour were used to determine, on each occasion, antitumour activity (ED50), acutee toxicity (LD50) and effect upon peripherical leucocytes (WBC4000), as shown Table 6.
The test compound was abdominally administered once to ddy mice, each group consisting of 5 animals.

[2] = system: Sarcoma 180 solid tumour; assay: Antitumour activity against Sarcoma 180 solid tumour; format: in vivo, ddy male mouse; conditions: for ED50: Mus musculus, Sarcoma-180, iv, 168 h; for C.I. (LD50/ED50): chemotherapeutic index LD50/ED50, Sarcoma 180, ddy mice
Source text: as §1
5×10^6 cells of Sarcoma 180 solid tumour were abdominally implanted into a ddy mouce. 7 days after this, the cells were collected from the ascites fluid. The cells were washed once with physiological saline under sterile conditions and suspended in physiological saline to obtain a cell suspension containing 5×10^7 cells/ml, of which 0.1 ml was implanted into a ddy male mouce (body weight 20±2 g) under the skin of the right armpit. The test compound was dissolved in physiological saline or the same solution containing Tween 80. 24 hours after implantation of the tumour cells, 0.1-0.2 ml of the solution containing the test compound was administered to the tail vein of each animal in the test group consisting of 5 animals. 7 days after the implantation, the major axis (a) and minor axis (b) of the tumour were measured to calculate the volume of the tumour as ("a"×"b^2 ")/2. The antitumour effect was indicated by T/C which is the ratio of the tumour volume in the test animals to the corresponding volume of the control (untreated) animals.
ED50 denotes the dosage capable of decreasing the volume of Sarcoma 180 solid tumour to 50% of the corresponding volume of the control animals. T/C ratios and the dose were respectively plotted on the ordinate using an arithmetic scale and on the abscissa using a logarithmic scale, the relationship between the dosage and the T/C ratio being converted to a straight line by the least squares method. From the straight tropic line thus-obtained, the dosage corresponding to a T/C=0.5 viz. ED50 was determined.

[3] = system: peripheral leucocytes; assay: Effect upon peripheral leucocytes (bone marrow toxicity); format: in vivo, male mice (ddy strain); conditions: minimum dose decreasing peripheral leucocytes to 4000/mm^3; tumour-bearing ddy mice, intraperitoneal, blood 4 days later
Method: as §1
of peripheral leucocytes to 4000/mm^3.
Sarcoma 180 solid tumour cells (5×10^6) were subcutaneously implanted under the skin of the right armpit of each mouse (body weight 20±2 g) of a group consisting of 5 male mice (ddy strain). 24 hours after this, a test compound was intraperitoneally administered to each animal. 4 days later, blood (0.02 ml) was collected from the suborbital plexus vein of each tumour-carrying animal. The collected sample of blood was dispersed in 9.98 ml of Cellkit Seven solution. One drop of saponin solution was added to the sample to dissolve erythrocytes and then a microcell counter was used to measure the number of leucocytes. On graph paper, the number of leucocytes was plotted on the ordinate using an arithmetic scale, and the dosage was plotted on the abscissa using a logarithmic scale to show the relationship of the dosage to the number of peripherical leucocytes, from which the value of WBC4000 viz. a value capable of giving 4000 peripheral leucocytes per mm^3 (about half of the corresponding value in normal mice) was obtained.

[4] = system: Klebsiella pneumoniae ATCC10031; assay: Antibacterial activity, agar dilution method (MIC), Klebsiella pneumoniae; format: cell-based; conditions: pH 7.0, read-out: Minimum inhibitory concentration (MIC), KP
Method: (§2) Antibacterial activities of Compounds (I) against various microorganisms are shown in the following Table 5, in which the minimum inhibitory concentration MIC (μg/ml) was measured by the agar dilution method at a pH of 7.0.
(§3) In this table, the following abbreviations are used: SF-Streptococcus faecalis ATCC 10541; SA-Staphylococcus aureus ATCC6538P; BS-Bacillus subtilis 10707; PV-Proteus vulgaris ATCC6897; KP-Klebsiella pneumoniae ATCC10031.

[5] = system: Streptococcus faecalis ATCC 10541; assay: Antibacterial activity, agar dilution method (MIC), Streptococcus faecalis; format: cell-based; conditions: Enterococcus faecalis, ATCC10541, pH 7.0, read-out: Minimum inhibitory concentration (MIC), SF
Method: as §2, §3

[6] = system: Bacillus subtilis 10707; assay: Antibacterial activity, agar dilution method (MIC), Bacillus subtilis; format: cell-based; conditions: pH 7.0, read-out: Minimum inhibitory concentration (MIC), BS
Method: as §2, §3

[7] = system: Staphylococcus aureus ATCC6538P; assay: Antibacterial activity, agar dilution method (MIC), Staphylococcus aureus; format: cell-based; conditions: pH 7.0, read-out: Minimum inhibitory concentration (MIC), SA
Method: as §2, §3

[8] = system: Proteus vulgaris ATCC6897; assay: Antibacterial activity, agar dilution method (MIC), Proteus vulgaris; format: cell-based; conditions: pH 7.0, read-out: Minimum inhibitory concentration (MIC), PV
Method: as §2, §3

[9] = Water-solubility; format: physicochemical
[10] = dose giving T/C=0.5 tumour volume, single tail vein administration 24 hours after implantation, measured 7 days after implantation, read-out: ED50

SMILES	LD50 at 336 h [1] [mg/kg]	ED50 [2, 10] [mg/kg]	C.I. (LD50/ED50) [2]	WBC4000 [3] [mg/kg]	MIC [4] [µg/mL]	MIC [5] [µg/mL]	MIC [6] [µg/mL]	MIC [7] [µg/mL]	MIC [8] [µg/mL]	solubility [9] [mg/mL]	ED50 [2] [mg/kg]
CO[C@@]12[C@H](COC(N)=O)C3=C(C(=O)C(C)=C(N=S(C)c4ccccc4)C3=O)N1C[C@@H]1N[C@@H]12 (stereo partly shown) [Compound 5, (E)-7-demethoxy-7-methylphenylsulfilimino mitomycin A]	15	2.7	5.6	4.1	–	–	–	–	–	–	–
CCS(CC)=NC1=C(C)C(=O)C2=C(C1=O)[C@H](COC(N)=O)[C@@]1(O)[C@@H]3[C@H](CN21)N3C (stereo partly shown) [Compound 7]	–	–	–	–	10 (≈ 23.7 µM)	20 (≈ 47.3 µM)	5 (≈ 11.8 µM)	10 (≈ 23.7 µM)	20 (≈ 47.3 µM)	–	–
C=C1C2=C(C(=O)C(C)=C(N=S(c3ccccc3)c3ccccc3)C2=O)N2C[C@H]3[C@H](N3C)[C@]12O (stereo partly shown) [Compound 3]	> 200	132	> 1.5	> 200	–	–	0.63 (≈ 1.38 µM)	–	–	–	–
CCS(CC)=NC1=C(C)C(=O)C2=C(C1=O)[C@@H](COC(N)=O)[C@@]1(OC)[C@H]3N[C@H]3CN21 [Compound 6]	9.4	2.5	3.8	5.6	0.039 (≈ 0.0923 µM)	0.078 (≈ 0.185 µM)	0.02 (≈ 0.0473 µM)	0.039 (≈ 0.0923 µM)	0.039 (≈ 0.0923 µM)	> 40	–
CC1=C(N=S(c2ccccc2)c2ccccc2)C(=O)C2=C(C1=O)N1C[C@H]3[C@H](N3C)[C@]1(O)[C@H]2COC(N)=O (stereo partly shown) [Compound 2]	> 200	89.1	> 2.2	> 200	25 (≈ 48.2 µM)	0.78 (≈ 1.5 µM)	0.2 (≈ 0.386 µM)	0.78 (≈ 1.5 µM)	–	–	–
CO[C@@]12[C@H](COC(N)=O)C3=C(C(=O)C(C)=C(N=S(c4ccccc4)c4ccccc4)C3=O)N1C[C@@H]1N[C@@H]12 [Compound 1, 7-demethoxy-7-diphenylsulfiliminomitomycin A]	–	–	–	–	0.16 (≈ 0.309 µM)	0.02 (≈ 0.0386 µM)	< 0.005	0.01 (≈ 0.0193 µM)	0.63 (≈ 1.21 µM)	–	–
CO[C@@]12[C@H](COC(N)=O)C3=C(C(=O)C(C)=C(N=P(c4ccccc4)(c4ccccc4)c4ccccc4)C3=O)N1C[C@@H]1N[C@@H]12 [Compound 9, 7-demethoxy-7-triphenylphosphiniminomitomycin A]	> 100	–	≥ 1.0	> 100	13 (≈ 21.9 µM)	13 (≈ 21.9 µM)	3.1 (≈ 5.21 µM)	13 (≈ 21.9 µM)	25 (≈ 42 µM)	–	100
